Experimental data reported in ChEMBL document CHEMBL1909046, “DrugMatrix in vitro pharmacology data”.

Legend:
[1] = molecular target: T1, Angiotensin-converting enzyme (Oryctolagus cuniculus, UniProt P12822); format: tissue-based, Lung;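 also: enzymatic inhibition of angiotensin-converting enzyme measured with FAPGG as the substrate; in other assays of this panel Not Active means under 50% inhibition at 10 µM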
T1 sequence (P12822 whole entry): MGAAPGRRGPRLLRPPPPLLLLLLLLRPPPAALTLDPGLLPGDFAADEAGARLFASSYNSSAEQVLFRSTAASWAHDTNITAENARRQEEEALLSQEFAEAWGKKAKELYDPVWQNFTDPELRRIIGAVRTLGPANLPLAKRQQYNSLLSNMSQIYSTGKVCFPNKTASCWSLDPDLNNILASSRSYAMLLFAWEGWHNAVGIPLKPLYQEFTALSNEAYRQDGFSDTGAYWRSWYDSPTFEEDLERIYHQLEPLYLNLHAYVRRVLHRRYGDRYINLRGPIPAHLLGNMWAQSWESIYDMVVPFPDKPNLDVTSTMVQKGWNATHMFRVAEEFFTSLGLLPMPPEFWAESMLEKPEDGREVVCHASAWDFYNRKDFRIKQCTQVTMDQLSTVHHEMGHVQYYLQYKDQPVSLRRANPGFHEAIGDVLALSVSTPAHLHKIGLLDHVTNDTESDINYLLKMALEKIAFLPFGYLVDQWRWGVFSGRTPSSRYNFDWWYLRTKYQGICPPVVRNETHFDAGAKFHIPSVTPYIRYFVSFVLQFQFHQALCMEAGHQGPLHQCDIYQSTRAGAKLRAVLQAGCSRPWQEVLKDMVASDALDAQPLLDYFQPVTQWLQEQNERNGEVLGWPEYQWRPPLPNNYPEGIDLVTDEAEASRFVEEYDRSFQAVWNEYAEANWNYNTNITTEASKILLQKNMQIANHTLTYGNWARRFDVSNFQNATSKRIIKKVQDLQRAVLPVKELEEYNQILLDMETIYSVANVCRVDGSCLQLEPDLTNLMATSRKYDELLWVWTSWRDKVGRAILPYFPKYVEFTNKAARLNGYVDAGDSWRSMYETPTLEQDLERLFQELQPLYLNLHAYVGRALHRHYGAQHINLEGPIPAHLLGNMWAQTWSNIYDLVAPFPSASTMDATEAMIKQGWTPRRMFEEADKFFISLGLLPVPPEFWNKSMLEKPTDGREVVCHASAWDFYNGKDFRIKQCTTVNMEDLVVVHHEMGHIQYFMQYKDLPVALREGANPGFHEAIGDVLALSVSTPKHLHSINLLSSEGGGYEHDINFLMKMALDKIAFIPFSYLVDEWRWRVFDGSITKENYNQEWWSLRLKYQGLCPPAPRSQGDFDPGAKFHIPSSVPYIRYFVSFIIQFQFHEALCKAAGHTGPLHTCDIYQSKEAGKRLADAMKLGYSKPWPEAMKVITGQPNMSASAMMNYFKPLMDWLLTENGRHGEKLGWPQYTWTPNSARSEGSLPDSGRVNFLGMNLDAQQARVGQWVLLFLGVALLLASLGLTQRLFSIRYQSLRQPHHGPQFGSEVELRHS

[2] = DRUGMATRIX: Calcium Channel Type L, Phenylalkylamine radioligand binding (ligand: [3H] (-)-Desmethoxyverapamil (D-888)); format: cell membranes, Rattus norvegicus, Wistar, Brain, Membrane; conditions: Not Active = under 50% inhibition at 10 µM
Cannabinoid receptor 1 = Cannabinoid receptor 1 (Homo sapiens, UniProt P21554); format: cell membranes, Chem-1, Membrane; conditions: chem-1; also: in other assays of this panel Not Active means under 50% inhibition at 10 µM
Adenosine receptor A2a = Adenosine receptor A2a (Homo sapiens, UniProt P29274); assay: DRUGMATRIX: Adenosine A2A radioligand binding (ligand: […]); format: cell membranes, HEK293, Membrane; conditions: hek293; Not Active = under 50% inhibition at 10 µM
[3] = molecular target: Protein phosphatase 3 catalytic subunit alpha (Homo sapiens, UniProt Q08209); design: species or system Escherichia coli;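 also: inhibition of calcineurin (PP2B) enzyme activity, measured with DiFMUP as the substrate; in other assays of this panel Not Active means under 50% inhibition at 10 µM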
[4] = molecular target: Sigma non-opioid intracellular receptor 1 (Homo sapiens, UniProt Q99720); assay: DRUGMATRIX: Sigma1 radioligand binding (ligand: [3H] Haloperidol); format: cell membranes, Jurkat, Membrane; conditions: Not Active = under 50% inhibition at 10 µM
Sequence of Sigma non-opioid intracellular receptor 1 (Q99720 whole entry): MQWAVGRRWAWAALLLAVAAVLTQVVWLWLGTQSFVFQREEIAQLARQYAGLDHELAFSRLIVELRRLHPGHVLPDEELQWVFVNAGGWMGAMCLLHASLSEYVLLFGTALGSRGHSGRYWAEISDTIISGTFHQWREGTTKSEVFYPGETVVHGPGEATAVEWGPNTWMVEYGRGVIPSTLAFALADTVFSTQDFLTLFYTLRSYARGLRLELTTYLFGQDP

Sequence of Cannabinoid receptor 1 (P21554 whole entry): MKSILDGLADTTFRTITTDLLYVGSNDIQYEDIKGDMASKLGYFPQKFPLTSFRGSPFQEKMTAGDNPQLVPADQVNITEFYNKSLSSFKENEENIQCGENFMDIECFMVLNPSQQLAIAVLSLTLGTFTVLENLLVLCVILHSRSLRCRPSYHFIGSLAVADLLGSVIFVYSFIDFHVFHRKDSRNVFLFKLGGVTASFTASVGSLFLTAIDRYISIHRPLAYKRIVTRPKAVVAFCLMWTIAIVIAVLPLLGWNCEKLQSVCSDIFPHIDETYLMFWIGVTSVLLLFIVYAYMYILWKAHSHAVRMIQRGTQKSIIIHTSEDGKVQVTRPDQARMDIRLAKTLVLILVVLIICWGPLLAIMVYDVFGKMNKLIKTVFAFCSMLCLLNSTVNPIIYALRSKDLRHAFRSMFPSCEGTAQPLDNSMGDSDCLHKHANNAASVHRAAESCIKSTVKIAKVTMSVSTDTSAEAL
Sequence of Adenosine receptor A2a (P29274 whole entry): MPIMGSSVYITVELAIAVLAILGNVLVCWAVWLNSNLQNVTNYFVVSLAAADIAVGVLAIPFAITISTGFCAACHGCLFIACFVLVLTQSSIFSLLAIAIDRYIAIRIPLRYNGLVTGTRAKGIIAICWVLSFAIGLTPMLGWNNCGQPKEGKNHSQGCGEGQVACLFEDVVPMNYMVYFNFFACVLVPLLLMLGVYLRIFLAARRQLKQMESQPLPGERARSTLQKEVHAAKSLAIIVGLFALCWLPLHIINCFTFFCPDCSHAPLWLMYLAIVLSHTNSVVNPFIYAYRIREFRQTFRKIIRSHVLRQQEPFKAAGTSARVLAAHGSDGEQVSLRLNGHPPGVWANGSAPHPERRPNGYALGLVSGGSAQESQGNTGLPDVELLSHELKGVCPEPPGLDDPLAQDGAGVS

Row | SMILES | IC50 [1] | IC50 ([2]; read-out: IC50) [nM] | Ki ([2]; read-out: Ki) [nM] | IC50 (Cannabinoid receptor 1) | IC50 (Adenosine receptor A2a) | IC50 [3] | IC50 ([4]; read-out: IC50) [nM] | Ki ([4]; read-out: Ki) [nM] | IC50 [2] | Ki [2] | IC50 ([4]; jurkat)
1 | CN(C)CCC=C1c2ccccc2CCc2ccccc21 [AMITRIPTYLINE] | Not Active | 840 | 816 | Not Active | Not Active | Not Active | 1030 | 433 |  |  | 
2 | CC(=O)Oc1ccccc1C(=O)O [ASPIRIN] | Not Active |  |  | Not Active | Not Active | Not Active |  |  | Not Active | Not Active | Not Active
3 | CC(C)c1c(C(=O)Nc2ccccc2)c(-c2ccccc2)c(-c2ccc(F)cc2)n1CC[C@@H](O)C[C@@H](O)CC(=O)O [ATORVASTATIN] | Not Active |  |  | Not Active | Not Active | Not Active |  |  | Not Active | Not Active | Not Active
4 | CC(=O)OC[C@H]1O[C@@H](n2ncc(=O)[nH]c2=O)[C@H](OC(C)=O)[C@@H]1OC(C)=O [AZARIBINE] | Not Active |  |  | Not Active | Not Active | Not Active |  |  | Not Active | Not Active | Not Active
5 | C[C@H]1[C@H](NC(=O)/C(=N\OC(C)(C)C(=O)O)c2csc(N)n2)C(=O)N1S(=O)(=O)O [AZTREONAM] | Not Active |  |  | Not Active | Not Active | Not Active |  |  | Not Active | Not Active | Not Active
6 | O=C(O)CCNC(=O)c1ccc(/N=N/c2ccc(O)c(C(=O)O)c2)cc1 [BALSALAZIDE] | Not Active |  |  | Not Active | Not Active | Not Active |  |  | Not Active | Not Active | Not Active
7 | ClC(Cl)(Cl)Cl [CARBON TETRACHLORIDE] | Not Active |  |  | Not Active | Not Active | Not Active |  |  | Not Active | Not Active | Not Active
8 | CO/N=C(\C(=O)N[C@@H]1C(=O)N2C(C(=O)O)=C(COC(C)=O)CS[C@H]12)c1csc(N)n1 [CEFOTAXIME] | Not Active |  |  | Not Active | Not Active | Not Active |  |  | Not Active | Not Active | Not Active
9 | CNC1=Nc2ccc(Cl)cc2C(c2ccccc2)=[N+]([O-])C1 [CHLORDIAZEPOXIDE] | Not Active |  |  | Not Active | Not Active | Not Active |  |  | Not Active | Not Active | Not Active
10 | Cc1cc(O)cc(C)c1Cl [CHLOROXYLENOL] | Not Active |  |  | Not Active | Not Active | Not Active |  |  | Not Active | Not Active | Not Active
11 | CCCNC(=O)NS(=O)(=O)c1ccc(Cl)cc1 [CHLORPROPAMIDE] | Not Active |  |  | Not Active | Not Active | Not Active |  |  | Not Active | Not Active | Not Active
12 | NS(=O)(=O)c1cc(C2(O)NC(=O)c3ccccc32)ccc1Cl (configuration not stated) [CHLORTHALIDONE] | Not Active |  |  | Not Active | Not Active | Not Active |  |  | Not Active | Not Active | Not Active
13 | O=C(O)CC(O)(CC(=O)O)C(=O)O [CITRIC ACID] | Not Active |  |  | Not Active | Not Active | Not Active |  |  | Not Active | Not Active | Not Active
14 | CC(C)NCC(O)c1ccccc1Cl (configuration not stated) [CLORPRENALINE] | Not Active |  |  | Not Active | Not Active | Not Active |  |  | Not Active | Not Active | Not Active
15 | CN1C[C@@H]2C[C@H]1CN2c1cc2c(cc1F)c(=O)c(C(=O)O)cn2C1CC1 [DANOFLOXACIN] | Not Active |  |  | Not Active | Not Active | Not Active |  |  | Not Active | Not Active | Not Active
16 | COc1cccc2c1C(=O)c1c(O)c3c(c(O)c1C2=O)C[C@@](O)(C(C)=O)C[C@@H]3O[C@H]1C[C@H](N)[C@H](O)[C@H](C)O1 [DAUNORUBICIN] | Not Active |  |  | Not Active | Not Active | Not Active |  |  | Not Active | Not Active | Not Active
17 | O=C(O)c1cc(-c2ccc(F)cc2F)ccc1O [DIFLUNISAL] | Not Active |  |  | Not Active | Not Active | Not Active |  |  | Not Active | Not Active | Not Active
18 | C[S+](C)[O-] [DIMETHYL SULFOXIDE] | Not Active |  |  | Not Active | Not Active | Not Active |  |  | Not Active | Not Active | Not Active
19 | CC1=NN(c2ccccc2)C(=O)C1 [EDARAVONE] | Not Active |  |  | Not Active | Not Active | Not Active |  |  | Not Active | Not Active | Not Active
20 | CC(C)C[C@H]1C(=O)N2CCC[C@H]2[C@]2(O)O[C@](NC(=O)[C@@H]3C=C4c5cccc6[nH]cc(c56)C[C@H]4N(C)C3)(C(C)C)C(=O)N12 [ERGOCRYPTINE] | Not Active |  |  | Not Active | Not Active | Not Active |  |  | Not Active | Not Active | Not Active
21 | C[C@]12CC[C@@H]3c4ccc(O)cc4CC[C@H]3[C@@H]1C[C@@H](O)[C@@H]2O [ESTRIOL] | Not Active |  |  | Not Active | Not Active | Not Active |  |  | Not Active | Not Active | Not Active
22 | C#C[C@]1(O)CC[C@H]2[C@@H]3CCC4=CC(=O)CC[C@]4(C)[C@H]3CC[C@@]21C [ETHISTERONE] | Not Active |  |  | Not Active | Not Active | Not Active |  |  | Not Active | Not Active | Not Active
23 | CC(O)(P(=O)(O)O)P(=O)(O)O [ETIDRONIC ACID] | Not Active |  |  | Not Active | Not Active | Not Active |  |  | Not Active | Not Active | Not Active
24 | CC(C)(C(=O)O)c1ccc(C(O)CCCN2CCC(C(O)(c3ccccc3)c3ccccc3)CC2)cc1 (configuration not stated) [FEXOFENADINE] | Not Active |  |  | Not Active | Not Active | Not Active |  |  | Not Active | Not Active | Not Active
25 | CN1CCN(c2c(F)cc3c(=O)c(C(=O)O)cn(CCF)c3c2F)CC1 [FLEROXACIN] | Not Active |  |  | Not Active | Not Active | Not Active |  |  | Not Active | Not Active | Not Active
26 | O=c1[nH]c(=O)n([C@H]2C[C@H](O)[C@@H](CO)O2)cc1F [FLOXURIDINE] | Not Active |  |  | Not Active | Not Active | Not Active |  |  | Not Active | Not Active | Not Active
27 | COC(=O)Nc1nc2cc(C(=O)c3ccc(F)cc3)ccc2[nH]1 [FLUBENDAZOLE] | Not Active |  |  | Not Active | Not Active | Not Active |  |  | Not Active | Not Active | Not Active
28 | CC(=O)OCC(=O)[C@@]1(O)CC[C@H]2[C@@H]3CCC4=CC(=O)CC[C@]4(C)[C@@]3(F)[C@@H](O)C[C@@]21C [FLUDROCORTISONE ACETATE] | Not Active |  |  | Not Active | Not Active | Not Active |  |  | Not Active | Not Active | Not Active
